The text below walks through data of patent publication EP4775574A1, “FURAN RING-CONTAINING COMPOUND, PHARMACEUTICAL COMPOSITION THEREOF, AND USE THEREOF” (Wuhan Xirui Pharmaceutical Technology Co., Ltd, priority 2023, dated 2025).

Where two headings read alike, the source gives them in different places.

The inhibition is the change of the read-out against control, counted positive when it falls. What is called Tmax is the time from dosing to the highest level.

In series [1] the target is Nav1.1 (Homo sapiens, UniProt P35498). Put plainly: Sodium channel selectivity test, patch-clamp, Nav1.1. It counts as cell-based. Conditions: read-out: Nav1.1 Inhibition rate (%). The source says: (§1) Test Example 3: Selectivity test of the compounds of the present disclosure on sodium channels • 1. Experimental objective: The effects of the compounds on the current of the voltage-gated sodium channel (NaV) subtypes 1.1-1.7 were detected by patch-clamp technique • 2. Experimental materials and instruments • 2.1 Cell lines: CHO/HEK293 cell lines stably expressing Nav1.1-1.7 sodium channels, constructed in-house by the laboratory of Beijing ICE Bioscience Co., Ltd., (Reference: Jarvis MF, Honore P, Shieh CC, Chapman M, Joshi S, Zhang XF, Kort M, Carroll W, Marron B, Atkinson R, Thomas J, Liu D, Krambis M, Liu Y, McGaraughty S, Chu K, Roeloffs R, Zhong C, Mikusa JP, Hernandez G, Gauvin D, Wade C, Zhu C, Pai M, Scanio M, Shi L, Drizin I, Gregg R, Matulenko M, Hakeem A, Gross M, Johnson M, Marsh K, Wagoner PK, Sullivan JP, Faltynek CR, Krafte DS. A-803467, a potent and selective Nav1.8 sodium channel blocker, attenuates neuropathic and inflammatory pain in the rat. Proc Natl Acad Sci U S A. 2007 May 15;104(20):8520-5. doi: 10.1073/pnas.0611364104. Epub 2007 May 2. PMID: 17483457; PMCID: PMC1895982.), gene information Nav1.1: NM_006920; Nav1.2: NM_001040142; Nav1.3: NM_006922; Nav1.4: NM_000334; Nav1.5: NM198056; Nav1.6: NM014191; Nav1.7: […]. • 2.2 Compounds: Dissolved in DMSO, with sample concentration prepared at 30 µM. • 3. Experimental methods • 3.1 Cell culture • (1) Maintenance medium: CHO cells were cultured in HAM'S/F-12 medium containing 10% fetal bovine serum, 100 µg/mL Zeocin, and 10 µg/mL Blasticidin, under conditions of 37°C incubation temperature and 5% carbon dioxide concentration. HEK-293 cells were cultured in DMEM medium containing 10% fetal bovine serum and 800 µg/mL G418; the culture temperature was 37°C, and the carbon dioxide concentration was 5%. • (2) Cell passage: The old medium was removed, and the cells were washed once with PBS, then 1 mL of 0.25%-Trypsin-EDTA solution was added and incubated at 37°C for approximately 1.5 min. When the cells were detached from the bottom of the dish, about 5 mL of preheated complete medium at 37°C was added. […]
(In general: The patch-clamp technique gives a direct electrical read-out from membranes.)

The target of series [2] is Nav1.2 (Homo sapiens, UniProt Q99250). Put plainly: Sodium channel selectivity test, patch-clamp, Nav1.2. The class given is cell-based. The following applies: read-out: Nav1.2 Inhibition rate (%).
Chain of Nav1.2 (Q99250 whole entry): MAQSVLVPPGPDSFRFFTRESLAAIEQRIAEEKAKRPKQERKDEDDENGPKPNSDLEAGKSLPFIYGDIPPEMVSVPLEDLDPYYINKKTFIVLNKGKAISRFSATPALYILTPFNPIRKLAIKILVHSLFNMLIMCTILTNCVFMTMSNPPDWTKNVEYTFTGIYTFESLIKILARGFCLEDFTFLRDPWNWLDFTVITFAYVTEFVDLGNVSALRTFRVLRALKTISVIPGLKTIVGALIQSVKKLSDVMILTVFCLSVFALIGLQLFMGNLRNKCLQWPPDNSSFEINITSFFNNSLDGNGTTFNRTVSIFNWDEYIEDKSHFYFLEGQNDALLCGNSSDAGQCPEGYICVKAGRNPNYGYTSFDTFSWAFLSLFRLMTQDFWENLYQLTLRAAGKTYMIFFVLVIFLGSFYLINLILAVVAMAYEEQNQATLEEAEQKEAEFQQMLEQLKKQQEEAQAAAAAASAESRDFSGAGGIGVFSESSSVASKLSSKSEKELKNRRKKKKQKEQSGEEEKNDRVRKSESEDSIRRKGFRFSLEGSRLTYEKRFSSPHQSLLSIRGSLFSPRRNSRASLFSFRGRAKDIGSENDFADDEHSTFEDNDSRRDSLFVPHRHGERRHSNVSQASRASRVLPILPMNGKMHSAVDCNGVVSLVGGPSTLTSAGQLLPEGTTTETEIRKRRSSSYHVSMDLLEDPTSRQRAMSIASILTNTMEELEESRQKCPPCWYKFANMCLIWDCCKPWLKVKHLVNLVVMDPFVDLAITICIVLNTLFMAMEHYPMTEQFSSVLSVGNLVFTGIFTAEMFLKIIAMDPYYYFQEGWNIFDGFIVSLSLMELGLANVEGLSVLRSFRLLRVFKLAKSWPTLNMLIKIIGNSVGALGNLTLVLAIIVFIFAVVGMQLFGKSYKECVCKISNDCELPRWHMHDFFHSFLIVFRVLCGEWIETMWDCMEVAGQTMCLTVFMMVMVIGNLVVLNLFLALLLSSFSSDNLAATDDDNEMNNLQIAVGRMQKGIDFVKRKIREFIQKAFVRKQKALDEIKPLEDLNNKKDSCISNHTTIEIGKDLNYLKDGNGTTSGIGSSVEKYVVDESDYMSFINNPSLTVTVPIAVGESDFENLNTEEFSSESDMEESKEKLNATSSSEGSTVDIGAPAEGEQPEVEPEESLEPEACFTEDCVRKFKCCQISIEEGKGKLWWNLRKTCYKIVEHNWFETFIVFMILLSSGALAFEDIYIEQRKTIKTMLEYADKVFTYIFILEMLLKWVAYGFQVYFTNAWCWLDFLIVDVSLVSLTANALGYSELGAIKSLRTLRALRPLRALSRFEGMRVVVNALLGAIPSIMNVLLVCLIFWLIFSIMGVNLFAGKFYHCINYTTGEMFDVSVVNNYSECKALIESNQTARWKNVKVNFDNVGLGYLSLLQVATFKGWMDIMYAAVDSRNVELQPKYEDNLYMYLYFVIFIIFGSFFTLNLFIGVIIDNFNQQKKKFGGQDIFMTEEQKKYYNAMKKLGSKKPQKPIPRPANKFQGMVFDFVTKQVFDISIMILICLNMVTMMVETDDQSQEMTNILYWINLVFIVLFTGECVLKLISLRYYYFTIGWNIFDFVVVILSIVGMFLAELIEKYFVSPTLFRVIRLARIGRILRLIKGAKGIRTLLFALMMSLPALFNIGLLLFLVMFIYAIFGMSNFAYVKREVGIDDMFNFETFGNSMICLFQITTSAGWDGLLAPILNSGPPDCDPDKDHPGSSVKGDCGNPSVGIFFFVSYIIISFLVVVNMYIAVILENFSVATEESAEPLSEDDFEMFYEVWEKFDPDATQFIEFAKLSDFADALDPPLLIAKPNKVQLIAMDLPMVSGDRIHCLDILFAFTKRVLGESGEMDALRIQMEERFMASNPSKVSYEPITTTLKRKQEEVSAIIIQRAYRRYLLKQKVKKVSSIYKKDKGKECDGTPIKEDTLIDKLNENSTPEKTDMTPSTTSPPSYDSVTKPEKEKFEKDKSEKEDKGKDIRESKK
From the text: as §1

Series [3] deals with Nav1.5 (Homo sapiens, UniProt Q14524). The series is described as follows: Sodium channel selectivity test, patch-clamp, Nav1.5. The following applies: read-out: Nav1.5 Inhibition rate (%). It counts as cell-based.
From the text: as §1

Series [4] has as its target Nav1.7 (Homo sapiens, UniProt Q15858). Put plainly: Sodium channel selectivity test, patch-clamp, Nav1.7. It counts as cell-based. The following applies: read-out: Nav1.7 Inhibition rate (%).
From the text: as §1

Series [5] can be described thus: Pharmacokinetic determination in SD rats. The class given is in vivo. Conditions: rat, po, gavage 10 mg/kg, plasma; for half-life: read-out: Half-life t1/2 (converted); for Cmax: read-out: Peak concentration Cmax; for Tmax: read-out: Time to peak Tmax. Here is the method:
SD rats were used as test animals to study the pharmacokinetic behavior in rat plasma after oral administration of the compound example of the present disclosure at a dose of 10 mg/kg.
Male SPF-grade SD rats, with body weight (200 ± 20) g.
Drug preparation: The drug concentration was prepared as 1 mg/mL, and the preparation solvent was Tween80 + 0.5% MC (v/v 1:99).
Male SPF-grade SD rats were administered by gavage after adaptive feeding for 3-4 days, with an administration dose of 10 mg/kg and an administration volume of 10 mL/kg.
Blood samples were collected from rats before administration (0 h) and after administration at 0.5 h, 1 h, 1.5 h, 2 h, 3 h, 4 h, 6 h, 8 h, 10 h, 12 h, and 24 h. Blood, approximately 0.2 mL, was collected by retro-orbital puncture and placed into EDTA-K2 anticoagulant tubes with labels. After blood collection, the tubes were gently and completely inverted three times to mix with the anticoagulant. The samples were then immediately placed in an ice-water bath and centrifuged at 4500 rpm for 10 min at 4°C. After centrifugation, the plasma was promptly aliquoted into EP tubes with corresponding labels and stored in a -80°C freezer.
After administration, 20 µL of rat plasma was taken and placed into a 96-deep-well plate pre-filled with 20 µL of internal standard working solution. Methanol (400 µL) as the precipitating agent was added, vortexed for 10 min, and centrifuged at 4000 rpm for 15 min. A supernatant of 200 µL was transferred into another 96-deep-well plate pre-filled with 200 µL of ultrapure water, vortexed for 5 min, and centrifuged at 4000 rpm for 3 min. A supernatant of 5 µL was taken for LC-MS/MS analysis of plasma drug concentration.
The main pharmacokinetic parameters were calculated by WinNonlin 7.0, and the pharmacokinetic experimental results of rats are shown in Table 4 below. Table 4: Pharmacokinetic experimental results of rats

Series [6] has as its system KM mouse acetic acid-induced writhing model. The series is described as follows: Analgesic efficacy in mouse acetic acid-induced writhing model. The class given is in vivo, KM mice. Conditions: single dose, writhes within 20 min, p < 0.05 vs solvent control. Here is the method:
1. Objective: The analgesic efficacy of the example was evaluated in a KM mouse acetic acid-induced writhing model. 2. Experimental methods: 2.1 Experimental drugs: The compounds in examples of the present disclosure and reference compound were self-prepared. […] It was prepared using a solvent (Tween 80 + 0.5% MC (v:v = 1:99 pH = 3)). 2.2 Experimental animals: Male KM mice were purchased from Hubei Provincial Center for Disease Control and Prevention (Hubei Provincial Academy of Preventive Medicine), weighing 20 to 25 g at the time of purchase. 2.3 Experimental grouping: Table 6: Efficacy test grouping of compounds in the acetic acid-induced writhing model
2.5 Data collection and analysis • Data were collected using Excel software. • Data were analyzed using Prism (Graph pad software, Inc.) software. 3.
For orientation: Writhing tests count abdominal constrictions after an irritant is injected.

The mark [7] stands for this setting: 30 mg/kg intragastric, second group set (solvent control 20.11 ± 3.55).
[8] abbreviates: 100 mg/kg intragastric, second group set (solvent control 20.11 ± 3.55).

Chain of Nav1.7 (Q15858 whole entry): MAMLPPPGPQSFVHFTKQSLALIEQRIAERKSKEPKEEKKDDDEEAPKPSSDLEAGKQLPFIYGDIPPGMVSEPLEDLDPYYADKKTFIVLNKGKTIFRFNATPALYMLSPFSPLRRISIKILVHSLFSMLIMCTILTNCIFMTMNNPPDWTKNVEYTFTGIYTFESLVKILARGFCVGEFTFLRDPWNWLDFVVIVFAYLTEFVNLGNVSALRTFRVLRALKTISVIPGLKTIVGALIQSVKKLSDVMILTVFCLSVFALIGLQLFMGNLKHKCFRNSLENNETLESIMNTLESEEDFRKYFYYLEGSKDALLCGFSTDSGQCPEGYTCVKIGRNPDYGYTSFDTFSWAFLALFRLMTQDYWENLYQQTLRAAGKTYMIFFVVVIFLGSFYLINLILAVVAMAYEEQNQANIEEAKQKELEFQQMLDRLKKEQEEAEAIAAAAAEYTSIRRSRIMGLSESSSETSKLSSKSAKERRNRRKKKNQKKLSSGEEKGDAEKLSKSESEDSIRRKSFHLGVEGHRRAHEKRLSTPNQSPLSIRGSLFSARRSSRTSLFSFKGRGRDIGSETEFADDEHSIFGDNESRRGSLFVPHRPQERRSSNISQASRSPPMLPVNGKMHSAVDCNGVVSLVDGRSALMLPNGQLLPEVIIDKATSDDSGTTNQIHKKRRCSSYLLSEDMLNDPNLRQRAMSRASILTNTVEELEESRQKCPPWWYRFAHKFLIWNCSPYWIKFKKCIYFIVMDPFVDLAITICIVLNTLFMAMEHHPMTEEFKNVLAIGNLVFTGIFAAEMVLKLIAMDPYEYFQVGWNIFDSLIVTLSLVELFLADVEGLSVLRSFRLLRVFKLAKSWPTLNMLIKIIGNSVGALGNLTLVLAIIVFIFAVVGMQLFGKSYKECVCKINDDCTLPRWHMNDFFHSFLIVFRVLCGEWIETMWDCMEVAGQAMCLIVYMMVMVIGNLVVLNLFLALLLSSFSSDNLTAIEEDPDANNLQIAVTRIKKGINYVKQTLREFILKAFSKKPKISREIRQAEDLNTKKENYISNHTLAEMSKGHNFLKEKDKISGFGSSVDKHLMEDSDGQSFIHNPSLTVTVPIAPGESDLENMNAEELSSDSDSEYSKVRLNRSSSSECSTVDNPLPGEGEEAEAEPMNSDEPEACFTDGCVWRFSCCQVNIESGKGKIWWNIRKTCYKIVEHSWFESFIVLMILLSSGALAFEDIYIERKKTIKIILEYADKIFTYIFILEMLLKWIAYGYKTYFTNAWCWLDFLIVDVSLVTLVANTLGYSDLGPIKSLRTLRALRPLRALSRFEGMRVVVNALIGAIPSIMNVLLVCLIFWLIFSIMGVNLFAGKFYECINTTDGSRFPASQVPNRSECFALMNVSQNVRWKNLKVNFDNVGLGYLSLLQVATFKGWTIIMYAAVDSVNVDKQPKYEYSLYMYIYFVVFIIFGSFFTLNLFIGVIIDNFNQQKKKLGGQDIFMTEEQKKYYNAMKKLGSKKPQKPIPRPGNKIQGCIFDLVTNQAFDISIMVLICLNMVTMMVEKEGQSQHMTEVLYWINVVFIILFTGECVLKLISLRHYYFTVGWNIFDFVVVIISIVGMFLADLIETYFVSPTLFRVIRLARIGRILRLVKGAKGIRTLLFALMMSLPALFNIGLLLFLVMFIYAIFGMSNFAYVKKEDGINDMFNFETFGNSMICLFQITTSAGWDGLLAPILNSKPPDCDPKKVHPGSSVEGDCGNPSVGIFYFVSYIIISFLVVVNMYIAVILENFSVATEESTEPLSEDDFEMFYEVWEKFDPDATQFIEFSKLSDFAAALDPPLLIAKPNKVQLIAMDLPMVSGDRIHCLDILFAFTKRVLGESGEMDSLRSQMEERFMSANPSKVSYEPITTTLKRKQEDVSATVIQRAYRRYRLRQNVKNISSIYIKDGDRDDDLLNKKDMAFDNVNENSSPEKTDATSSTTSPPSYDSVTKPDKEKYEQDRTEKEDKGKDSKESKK

Regarding `C[C@H]1[C@@H](c2ccc(F)c(F)c2OC2COC2)[C@H](C(=O)Nc2ccc(F)c(C(=N)NO)c2)O[C@@]1(C)C(F)(F)F` [Example 11], the inhibition at 30 µM in series [1] is 1.96%; in series [2], 16%; in series [3] (cho/hek293 cells), 9.11%; in series [4], 14.8%. Further, the AUC(0-t) in series [5] (read-out: Area under the curve AUC0-t) was 2080 ± 201 ng·h/mL. Also, in series [5], the half-life is 51 ± 4.2 min. Besides, the Cmax in series [5] was found to be 1040 ± 260 ng/mL. Besides, in series [5], the Tmax was 45 ± 30 min. The Number of writhes in series [6] (setting [7]) is listed as 11.56 ± 5.15; in series [6] (setting [8]) it was 8.38 ± 6.12.

On to `COc1c([C@H]2[C@H](C(=O)Nc3ccnc(C(N)=O)c3)O[C@@](C)(C(F)(F)F)[C@H]2C)ccc(F)c1F` [Reference compound, reference compound], for which the inhibition at 30 µM was 57.7% in series [1], 53.6% in series [2], 72.2% in series [3] (human) and 11.1% in series [4]. In addition, the AUC(0-t) in series [5] (male, read-out: Area under the curve AUC0-t) turned out to be 608 ± 362 ng·h/mL. Also, the half-life in series [5] (male) was 79.2 ± 10.2 min. In series [5] (male), the Cmax amounted to 216 ± 124 ng/mL. For the same molecule, the time to peak (Tmax) in series [5] (male) amounted to 37.8 ± 15 min. Further, the Number of writhes in series [6] (setting [7]) turned out to be 11.86 ± 3.53; in series [6] (setting [8]), 10.13 ± 3.64.

As to `COCCOc1c([C@H]2[C@H](C(=O)Nc3ccc(F)c(C(=N)NO)c3)O[C@@](C)(C(F)(F)F)[C@H]2C)ccc(F)c1F` [Example 10], the inhibition at 30 µM came to 28.4% in series [1]; 32.8% in series [2]; 51.7% in series [3] (human, cho/hek293 cells); 20.8% in series [4]. Besides, the AUC(0-t) at 24 h in series [5] (in vivo, read-out: Area under the curve AUC0-t) came to 4650 ± 1600 ng·h/mL. In addition, in series [5] (in vivo), the half-life was 96 ± 16.2 min. Besides, the Cmax in series [5] (in vivo) turned out to be 1240 ± 326 ng/mL. The time of peak concentration (Tmax) in series [5] (in vivo) came out at 52.8 ± 15 min. Moreover, the Number of writhes in series [6] (30 mg/kg intragastric, first group set (solvent control 16.11 ± 5.84)) came out at 12.10 ± 6.10.
